US4631274A, “Halovinyl cephem compounds” (Fujisawa Pharmceutical Co., Ltd., priority 1984, dated 1986)

Columns and labels:
Proteus vulgaris 2 = assay: In vitro antibacterial activity, two-fold agar-plate dilution method (MIC); type: cell-based; details: HI-agar, 37° C., 20 hours, read-out: MIC (minimal inhibitory concentration)
Procedure: (§1) In vitro antibacterial activity was determined by the two-fold agar-plate dilution method as described below.
(§2) One loopful of an overnight culture of each test strain in Trypticase-soy broth (10^8 viable cells per ml) was streaked on heart infusion agar (HI-agar) containing graded concentrations of representative test compound, and the minimal inhibitory concentration (MIC) was expressed in terms of μg/ml after incubation at 37° C. for 20 hours.

Proteus mirabilis 18 = assay: as above; type: cell-based; details: HI-agar, 37° C., 20 hours, read-out: MIC (minimal inhibitory concentration)
Procedure: as §1, §2

[1] = Urinary excretion in rats after oral administration; type: in vivo; details: rat, urine, 20 mg/kg, bioassay, read-out: Urinary recovery in 24 hours (%)
Procedure: Urine of rats was collected with a urine collector at 0 to 6, and 6 to 24 hours after oral administration of 20 mg/kg of the test antibiotic. The antibiotic levels in the urine samples were bioassayed with the standard solution prepared with M/15 phosphate buffer (pH 7.0) and the urinary recovery in 24 hours was calculated.

in vivo = details: rat, po, 20 mg/kg
Procedure: Rats anesthetized with pentobarbital were fixed in supine position, and a polyethylene cannula was inserted into the bile duct. Bile samples were collected at 0 to 3, 3 to 6, and 6 to 24 hours after oral administration of 20 mg/kg of the test antibiotic. The antibiotic levels in the bile samples were bioassayed with the standard solution prepared with M/15 phosphate buffer (pH 7.0) and the biliary recovery in 24 hours were calculated.

Nc1nc(/C(=N/OCC(=O)O)C(=O)NC2C(=O)N3C(C(=O)O)=C(/C=C/Cl)CSC23)cs1 (stereo not drawn) [A, 7-[2-Carboxymethoxyimino-2-(2-aminothiazol-4-yl)acetamido]-3-[(E)-2-chlorovinyl]-3-cephem-4-carboxylic acid (syn isomer)]
MIC (Proteus vulgaris 2): < 0.025 µg/mL
MIC (Proteus mirabilis 18): < 0.025 µg/mL
dose excreted at 24 h [1]: 51.1%
dose excreted at 24 h (in vivo): 24.2%
